Test results published in patent publication US7183324B2, “2,3,4-substituted cyclopentanones as therapeutic agents” (Allergan, Inc., priority 2004, dated 2007).

Tests used:
HEP3D = target: T1, HEP3D (Homo sapiens, UniProt P43115); assay: Radioligand binding, EP3 receptor; details: [3H]PGE2 5 nM
T1 sequence (P43115 1-374 isoform P43115-4): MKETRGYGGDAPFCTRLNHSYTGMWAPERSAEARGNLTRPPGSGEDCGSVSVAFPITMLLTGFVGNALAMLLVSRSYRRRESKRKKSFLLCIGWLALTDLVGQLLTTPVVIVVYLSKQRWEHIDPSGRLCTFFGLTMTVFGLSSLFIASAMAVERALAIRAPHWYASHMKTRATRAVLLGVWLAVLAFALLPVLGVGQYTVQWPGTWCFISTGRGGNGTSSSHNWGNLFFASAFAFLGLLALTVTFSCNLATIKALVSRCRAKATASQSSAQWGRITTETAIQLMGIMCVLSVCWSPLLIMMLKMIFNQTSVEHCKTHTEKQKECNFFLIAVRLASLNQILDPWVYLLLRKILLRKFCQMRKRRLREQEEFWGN
Description: (§1) HEK-293 cells stably expressing the human or feline FP receptor, or EP1, EP2, or EP4 receptors were washed with TME buffer, scraped from the bottom of the flasks, and homogenized for 30 sec using a Brinkman PT 10/35 polytron. TME buffer was added to achieve a final 40 ml volume in the centrifuge tubes (the composition of TME is 100 mM TRIS base, 20 mM MgCl2, […]; 10N HCl is added to achieve a pH of 7.4).
(§2) The cell homogenate was centrifuged at 19000 r.p.m. for 20 min at 4° C. using a Beckman Ti-60 rotor. The resultant pellet was resuspended in TME buffer to give a final 1 mg/ml protein concentration, as determined by Biorad assay. Radioligand binding competition assays vs. [^3H-]17-phenyl PGF2α (5 nM) were performed in a 100 μl volume for 60 min. Binding reactions were started by adding plasma membrane fraction. The reaction was terminated by the addition of 4 ml ice-cold TRIS-HCl buffer and rapid filtration through glass fiber GF/B filters using a Brandel cell harvester. The filters were washed 3 times with ice-cold buffer and oven dried for one hour. Non-specific binding was determined with 10 uM unlabeled 17-phenyl PGF2α.
(§3) [^3H-] PGE2 (5 nM; specific activity 180 Ci mmol) was used as the radioligand for EP receptors. Binding studies employing EP1, EP2, EP3, EP4 were performed in duplicate in at least three separate experiments. A 200 μl assay volume was used. Incubations were for 60 min at 25° C. and were terminated by the addition of 4 ml of ice-cold 50 mM TRIS-HCl, followed by rapid filtration through Whatman GF/B filters and three additional 4 ml washes in a cell harvester (Brandel). Non-specific binding determined with 10^−5M of unlabeled PGE2.

HEP4 = target: T2, HEP4 (Homo sapiens, UniProt P35408); assay: Radioligand binding, EP4 receptor; details: [3H]PGE2 5 nM, HEK-293 membranes
T2 construct: expressed in transfected cells; host or cells: HEK-293
Description: as §1, §2, §3

hEP4/Gqs5 = target: T3, hEP4/Gqs5 (Homo sapiens, UniProt P35408); assay: FLIPR calcium signal, hEP4/Gqs5; assay type: cell-based; details: HEK-293 (EBNA) cells, read-out: FUNCTIONAL EC50 HEP4
T3 construct: expressed in transfected cells; host or cells: HEK-293 (EBNA)
Description: (§4) HEK-293 (EBNA) cells, stably expressing one type or subtype of recombinant human prostaglandin receptors (prostaglandin receptors expressed: hDP/Gqs5; hEP1; hEP2/Gqs5; hEP3A/Gqi5; hEP4/Gqs5; hFP; hIP; hTP), were cultured in 100 mm culture dishes in high-glucose DMEM medium containing 10% fetal bovine serum, 2 mM 1-glutamine, 250 μg/ml geneticin (G418) and 200 μg/ml hygromycin B as selection markers, and 100 units/ml penicillin G, 100 μg/ml streptomycin and 0.25 μg/ml amphotericin B. • (b) Calcium Signal Studies on the FLIPR™
Cells were seeded at a density of 5×10^4 cells per well in Biocoat® Poly-D-lysine-coated black-wall, clear-bottom 96-well plates (Becton-Dickinson) and allowed to attach overnight in an incubator at 37° C. Cells were then washed two times with HBSS-HEPES buffer (Hanks Balanced Salt Solution without bicarbonate and phenol red, 20 mM HEPES, pH 7.4) using a Denley Cellwash plate washer (Labsystems). After 45 minutes of dye-loading in the dark, using the calcium-sensitive dye Fluo-4 AM at a final concentration of 2 μM, plates were washed four times with HBSS-HEPES buffer to remove excess dye leaving 100 μl in each well. Plates were re-equilibrated to 37° C. for a few minutes.
Cells were excited with an Argon laser at 488 nm, and emission was measured through a 510–570 nm bandwidth emission filter (FLIPR™, Molecular Devices, Sunnyvale, Calif.). Drug solution was added in a 50 μl volume to each well to give the desired final concentration. The peak increase in fluorescence intensity was recorded for each well. On each plate, four wells each served as negative (HBSS-HEPES buffer) and positive controls (standard agonists: BW245C (hDP); PGE2 (hEP1; hEP2/Gqs5; hEP3A/Gqi5; hEP4/Gqs5); PGF2α (hFP); carbacyclin (hIP); U46619 (hTP), depending on receptor). The peak fluorescence change in each drug-containing well was then expressed relative to the controls.
Compounds were tested in a high-throughput (HTS) or concentration-response (CoRe) format. In the HTS format, forty-four compounds per plate were examined in duplicates at a concentration of 10^−5 M. To generate concentration-response curves, four compounds per plate were tested in duplicates in a concentration range between 10^−5 and 10^−11 M. The duplicate values were averaged. In either, HTS or CoRe format each compound was tested on at least 3 separate plates using cells from different passages to give an n≧3.

Beagle dogs [1] = assay: Intraocular pressure in dogs (pneumatonometry); assay type: in vivo; details: dog, topical 25 μL drop, Conc. 0.1%, 5 day study
Description: (§5) • Intraocular Pressure (IOP) Intraocular pressure studies in dogs involved pneumatonometry performed in conscious, Beagle dogs of both sexes (10–15 kg). The animals remained conscious throughout the study and were gently restrained by hand. Drugs were administered topically to one eye as a 25 μL volume drop, the other eye received 25 μL vehicle (0.1% polysorbate 80:10 mM TRIS) as a control. Proparacaine (0.1%) was used for corneal anesthesia during tonometry. Intraocular pressure was determined just before drug administration and at 2, 4 and 6 hr thereafter on each day of the 5 day study. Drug was administered immediately after the first IOP reading. • An analogous procedure was carried out with cynomolgus monkeys with measurements at 2, 4, 6, and 24 hours after a single dose. • Pupil Diameter • Dog pupil diameter was measured using an optistick (a mm ruler which included half-circle references of standard widths (mm) for reference. Gently restraining the dog by hand, pupil diameter was determined by matching a half-circle to the pupil in normal room light. In dogs with very dark pupils a specialized penlight was used, but only very briefly to avoid pupil constriction. Pupil diameter was measured at the same time as IOP and hyperemia. • Ocular Surface Hyperemia • Ocular surface hyperemia was visually assessed and scored according to a system typically used clinically.

Beagle dogs [2] = assay: Ocular surface hyperemia in dogs; assay type: in vivo; details: dog, topical, Conc. 0.1%; score: trace 0.5, mild 1, moderate 2, severe 3
Description: as §5
• Ocular surface hyperemia was evaluated at the same time points as intraocular pressure measurement. It should be noted that untreated dog eyes frequently have a pink/red tone. Thus, values of trace or even mild are not necessarily out of the normal range.

cynomolgus monkeys = assay: Intraocular pressure in cynomolgus monkeys; assay type: in vivo; details: monkey, topical single dose, Conc. 0.1%
Description: as §5

hIP = target: T4, hIP (Homo sapiens, UniProt P43119); assay: FLIPR calcium signal, hIP; assay type: cell-based; details: HEK-293 (EBNA) cells, read-out: FUNCTIONAL EC50 HIP
T4 construct: expressed in transfected cells; host or cells: HEK-293 (EBNA)
Description: as §4
Cells were seeded at a density of 5×10^4 cells per well in Biocoat® Poly-D-lysine-coated black-wall, clear-bottom 96-well plates (Becton-Dickinson) and allowed to attach overnight in an incubator at 37° C. Cells were then washed two times with HBSS-HEPES buffer (Hanks Balanced Salt Solution without bicarbonate and phenol red, 20 mM HEPES, pH 7.4) using a Denley Cellwash plate washer (Labsystems). […]
Cells were excited with an Argon laser at 488 nm, and emission was measured through a 510–570 nm bandwidth emission filter (FLIPR™, Molecular Devices, Sunnyvale, Calif.). […] The peak increase in fluorescence intensity was recorded for each well. […] The peak fluorescence change in each drug-containing well was then expressed relative to the controls. […]

T3 sequence (P35408 whole entry): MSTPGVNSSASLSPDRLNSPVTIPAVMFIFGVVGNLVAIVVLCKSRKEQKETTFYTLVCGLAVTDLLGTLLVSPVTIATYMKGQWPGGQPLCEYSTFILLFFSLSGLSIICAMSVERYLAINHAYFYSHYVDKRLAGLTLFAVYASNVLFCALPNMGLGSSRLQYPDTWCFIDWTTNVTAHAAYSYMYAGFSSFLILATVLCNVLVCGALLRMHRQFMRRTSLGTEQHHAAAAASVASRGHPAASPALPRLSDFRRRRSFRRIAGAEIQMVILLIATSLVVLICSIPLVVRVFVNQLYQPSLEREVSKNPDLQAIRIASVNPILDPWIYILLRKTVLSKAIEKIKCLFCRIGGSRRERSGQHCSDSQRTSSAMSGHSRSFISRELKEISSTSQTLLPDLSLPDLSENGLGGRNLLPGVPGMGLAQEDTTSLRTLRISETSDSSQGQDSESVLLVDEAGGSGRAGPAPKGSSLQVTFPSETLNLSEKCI
T2 sequence (P35408 whole entry): as above
T4 sequence (P43119 whole entry): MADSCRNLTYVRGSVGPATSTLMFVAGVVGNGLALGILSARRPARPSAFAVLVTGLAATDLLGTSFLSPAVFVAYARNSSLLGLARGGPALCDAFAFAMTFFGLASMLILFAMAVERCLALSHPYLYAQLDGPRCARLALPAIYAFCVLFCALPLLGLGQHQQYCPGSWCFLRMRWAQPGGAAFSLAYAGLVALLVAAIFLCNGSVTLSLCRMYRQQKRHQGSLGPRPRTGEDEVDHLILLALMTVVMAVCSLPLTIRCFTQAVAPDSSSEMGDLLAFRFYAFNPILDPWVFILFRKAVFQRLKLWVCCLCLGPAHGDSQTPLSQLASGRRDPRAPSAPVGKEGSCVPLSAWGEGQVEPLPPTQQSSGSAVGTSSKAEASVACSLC

EC50 (hIP) [nM] | SMILES | IC50 (HEP3D) [nM] | IC50 (HEP4) [nM] | EC50 (hEP4/Gqs5) [nM] | Max. ΔIOP (Beagle dogs [1]) [mm Hg] | Max hyperemia (Beagle dogs [2]) | Max. ΔIOP (cynomolgus monkeys) [mm Hg]
 | O=C(O)CSCCCS[C@H]1C(=O)C[C@@H](CO)[C@@H]1/C=C/C(O)Cc1ccccc1 (single isomer, unassigned) [Compound 151] | > 10000 | 53 | 59 | −4.0 | 1.6 | −2.9
> 10000 | COC(=O)CSCCCS[C@H]1C(=O)C[C@@H](CO)[C@@H]1/C=C/C(O)CCc1ccc2ccccc2c1 (single isomer, unassigned) [drawing 39] |  | 140 | 1860 |  |  | 
